In patent US8962825B2, “Hydroxamates as inhibitors of histone deacetylase” (GlaxoSmithKline Intellectual Property Development Limited, priority 2006, dated 2015):
pIC50: −log10 of the molar value.

Experiments:
U937 cells = test: U937 cell inhibition assay (WST-1 cell viability); format: cell-based; settings: Homo sapiens, U-937, 72-96 h
Protocol: (§1) Cancer cell lines (U937 and HUT) growing in log phase were harvested and seeded at 1000-2000 cells/well (100 μl final volume) into 96-well tissue culture plates. Following 24 h of growth cells were treated with Compound. Plates were then re-incubated for a further 72-96 h before a WST-1 cell viability assay was conducted according to the suppliers (Roche Applied Science) instructions.
(§2) Data were expressed as a percentage inhibition of the control, measured in the absence of inhibitor, as follows: % inhibition=100−[(S^i/S^o)×100] where S^i is the signal in the presence of inhibitor and S^o is the signal in the presence of DMSO.
(§3) Dose response curves were generated from 8 concentrations (top final concentration 10 μM, with 3-fold dilutions), using 6 replicates.
(§4) IC50 values were determined by non-linear regression analysis, after fitting the results to the equation for sigmoidal dose response with variable slope (% activity against log concentration of Compound), using Graphpad Prism software.

[1] = target: T1, histone deacetylase activity (HeLa nuclear extract); test: Histone deacetylase activity (Biomol Fluor de Lys HDAC fluorescent activity assay); format: biochemical; settings: Fluor de Lys substrate
T1 construct: Histone deacetylase activity from crude nuclear extract derived from HeLa cells was used for screening
Protocol: The ability of compounds to inhibit histone deacetylase activities was measured using the commercially available HDAC fluorescent activity assay from Biomol. In brief, the Fluor de Lys™ substrate, a lysine with an epsilon-amino acetylation, is incubated with the source of histone deacetylase activity (HeLa nuclear extract) in the presence or absence of inhibitor. Deacetylation of the substrate sensitises the substrate to Fluor de Lys™ developer, which generates a fluorophore. Thus, incubation of the substrate with a source of HDAC activity results in an increase in signal that is diminished in the presence of an HDAC inhibitor.
Data are expressed as a percentage of the control, measured in the absence of inhibitor, with background signal being subtracted from all samples, as follows: % activity=[(S^i−B)/(S^o−B)]×100 where S^i is the signal in the presence of substrate, enzyme and inhibitor, S^o is the signal in the presence of substrate, enzyme and the vehicle in which the inhibitor is dissolved, and B is the background signal measured in the absence of enzyme.
(§5) IC50 values were determined by non-linear regression analysis, after fitting the results of eight data points to the equation for sigmoidal dose response with variable slope (% activity against log concentration of Compound), using Graphpad Prism software.
Histone deacetylase activity from crude nuclear extract derived from HeLa cells was used for screening. The preparation, purchased from 4C (Seneffe, Belgium), was prepared from HeLa cells harvested whilst in exponential growth phase. The nuclear extract was prepared according to the methodology described by J. D. Dignam, Nucl. Acid. Res., 1983, 11, 1475-1489, snap frozen in liquid nitrogen and stored at −80° C. The final buffer composition was 20 mM Hepes, 100 mM KCl, 0.2 mM EDTA, 0.5 mM DTT, 0.2 mM PMSF and 20% (v/v) glycerol.

HeLa cells = test: HeLa cell inhibition assay (sulphorhodamine B cell viability); format: cell-based; settings: Homo sapiens, 72 h, SRB
Protocol: HeLa cells growing in log phase were harvested and seeded at 1000 cells/well (200 μl final volume) into 96-well tissue culture plates. Following 24 h of cell growth cells were treated with Compounds (final concentration of 20 μM). Plates were then re-incubated for a further 72 h before a sulphorhodamine B (SRB) cell viability assay was conducted according to the methodology described by Skehan et al, J. Natl. Canc. Inst., 1990, 82, 1107-1112.
Data were expressed as a percentage inhibition of the control, measured in the absence of inhibitor, as follows:— % inhibition=100−[(S^i/S^o)×100] where S^i is the signal in the presence of inhibitor and S^o is the signal in the presence of DMSO.
as §5

HUT cells = test: HUT cell inhibition assay (WST-1 cell viability); format: cell-based; settings: 72-96 h
Protocol: as §1, §2, §3, §4

Row | pIC50 (U937 cells) | pIC50 [1] | pIC50 (HeLa cells) | Compound | pIC50 (HUT cells)
1 | > 6.48 | 6.00 to 7.00 | < 5.48 | CC(C)C[C@H](NC1CCN(c2ncc(C(=O)NO)cn2)CC1)C(=O)OC1CCCC1 [Example 1, Cyclopentyl N-{1-[5-(hydroxycarbamoyl)pyrimidin-2-yl]piperidin-4-yl}-L-leucinate] | 5.48 to 6.48
2 |  | 6.00 to 7.00 |  | CC(C)C[C@H](NC1CCN(c2ncc(C(=O)NO)cn2)CC1)C(=O)O [Example 2, N-{1-[5-(hydroxycarbamoyl)pyrimidin-2-yl]piperidin-4-yl}-L-leucine] | 
3 | 5.48 to 6.48 |  | < 5.48 | O=C(NO)c1cnc(N2CCC(N[C@@H](CO)C(=O)OC3CCCC3)CC2)nc1 [Example 9] | 5.48 to 6.48
4 | > 6.48 |  | 5.48 to 6.48 | CC(C)(C)OCC(NCC1C2CN(c3ncc(C(=O)NO)cn3)CC12)C(=O)OC1CCCC1 (centres unmarked) [Example 12] | 5.48 to 6.48
5 | 5.48 to 6.48 | > 7.00 | 5.48 to 6.48 | O=C(NO)c1cnc(N2CC3C(CN[C@H](C(=O)OC4CCCC4)C4CCCCC4)C3C2)nc1 (stereo partly drawn) [Example 14, Cyclopentyl (2S)-cyclohexyl[({3-[5-(hydroxycarbamoyl)pyrimidin-2-yl]-3-azabicyclo[3.1.0]hex-6-yl}methyl)amino]acetate] | 5.48 to 6.48
6 |  | 6.00 to 7.00 |  | O=C(NO)c1cnc(N2CC3C(CN[C@H](C(=O)O)C4CCCCC4)C3C2)nc1 (stereo partly drawn) [Example 15, (2S)-cyclohexyl[({3-[5-(hydroxycarbamoyl)pyrimidin-2-yl]-3-azabicyclo[3.1.0]hex-6-yl}methyl)amino]acetic acid] | 
7 | > 6.48 |  | 5.48 to 6.48 | CC(C)C[C@H](NCC1CCN(c2ncc(C(=O)NO)cn2)CC1)C(=O)OC1CCCC1 [Example 16] | > 6.48
8 |  | > 7.00 |  | O=C(NO)c1cnc(N2CCC(CN[C@H](C(=O)O)C3CCCCC3)CC2)nc1 [Example 19, (2S)-cyclohexyl[({1-[5-(hydroxycarbamoyl)pyrimidin-2-yl]piperidin-4-yl}methyl)amino]acetic acid] | 
9 | > 6.48 |  | 5.48 to 6.48 | O=C(NO)c1cnc(N2CCC(CN[C@H](C(=O)OC3CCCC3)c3ccccc3)CC2)nc1 [Example 20] | 5.48 to 6.48
10 | > 6.48 |  | 5.48 to 6.48 | CC(C)(C)OC[C@H](NCC1CCN(c2ncc(C(=O)NO)cn2)CC1)C(=O)OC1CCCC1 [Example 22] | > 6.48
11 | > 6.48 |  | 5.48 to 6.48 | O=C(NO)c1cnc(N2CCC(CN[C@@H](CO)C(=O)OC3CCCC3)CC2)nc1 [Example 24] | > 6.48
12 | 5.48 to 6.48 |  | < 5.48 | O=C(NO)c1cnc(N2CCC(CN[C@H](C(=O)OC3CCCC3)c3cccc4ccccc34)CC2)nc1 [Example 26] | 5.48 to 6.48
13 |  | 6.00 to 7.00 |  | CC(C)C[C@H](NCc1ccc(CNC2CCN(c3ncc(C(=O)NO)cn3)CC2)cc1)C(=O)O [Example 28, N-{-4-[({1-[5-(hydroxycarbamoyl)pyrimidin-2-yl]piperidin-4-yl}amino)methyl]benzyl}-L-leucine] | 
14 |  | > 7.00 |  | O=C(NO)c1cnc(N2CCC(NCc3ccc(CN[C@H](C(=O)OC4CCCC4)c4ccccc4)cc3)CC2)nc1 [Example 30] | 
15 |  | 6.00 to 7.00 |  | O=C(NO)c1cnc(N2CCC(NCc3ccc(CN[C@H](C(=O)OC4CCCC4)c4ccccc4)cc3)CC2)nc1 [Example 32] | 
16 |  | > 7.00 |  | O=C(NO)c1cnc(N2CCC(NCc3ccc(CN[C@H](C(=O)OC4CCCC4)c4ccccc4)cc3)CC2)nc1 [Example 34] | 
17 | > 6.48 |  | > 6.48 | CC(C)C[C@H](NCc1ccc(CNCC2CCN(c3ncc(C(=O)NO)cn3)CC2)cc1)C(=O)OC1CCCC1 [Example 36] | > 6.48
18 |  | > 7.00 |  | O=C(NO)c1cnc(N2CCC(CNCc3ccc(CN[C@H](C(=O)O)C4CCCCC4)cc3)CC2)nc1 [Example 39, (2S)-cyclohexyl[(4-{[({1-[5-(hydroxycarbamoyl)pyrimidin-2-yl]piperidin-4-yl}methyl)amino]methyl}benzyl)amino]acetic acid] | 
19 | > 6.48 |  | 5.48 to 6.48 | CC(C)(C)OC[C@H](NCc1ccc(CNCC2CCN(c3ncc(C(=O)NO)cn3)CC2)cc1)C(=O)OC1CCCC1 [Example 40] | > 6.48
20 | > 6.48 |  | > 6.48 | O=C(NO)c1cnc(N2CCC(CNCc3ccc(CN[C@H](C(=O)OC4CCCC4)c4ccccc4)cc3)CC2)nc1 [Example 42] | > 6.48
21 | > 6.48 |  | 5.48 to 6.48 | O=C(NO)c1cnc(N2CCC(CNCc3ccc(CN[C@@H](CO)C(=O)OC4CCCC4)cc3)CC2)nc1 [Example 44] | > 6.48
22 | 5.48 to 6.48 | 6.00 to 7.00 |  | O=C(NO)c1cnc(N2CCC(CNCC3CCC(CN[C@H](C(=O)OC4CCCC4)C4CCCCC4)CC3)CC2)nc1 (stereo partly drawn) [Example 46, Cyclopentyl (2S)-cyclohexyl{[(4-{[({1-[5-(hydroxycarbamoyl)pyrimidin-2-yl]piperidin-4-yl}methyl)amino]methyl}cyclohexyl)methyl]amino}acetate] | 5.48 to 6.48
23 |  | > 7.00 |  | O=C(NO)c1cnc(N2CCC(CNCC3CCC(CN[C@H](C(=O)O)C4CCCCC4)CC3)CC2)nc1 (stereo partly drawn) [Example 47, (2S)-cyclohexyl{[(4-{[({1-[5-(hydroxycarbamoyl)pyrimidin-2-yl]piperidin-4-yl}methyl)amino]methyl}cyclohexyl)methyl]amino}acetic acid] | 
24 | 5.48 to 6.48 | < 6.00 |  | CC(C)C[C@H](NC1CCN(c2ccc(C(=O)NO)cc2)CC1)C(=O)OC1CCCC1 [Example 48, Cyclopentyl N-{1-[4-(hydroxycarbamoyl)phenyl]piperidin-4-yl}-L-leucinate] | < 5.48
25 |  | < 6.00 |  | CC(C)C[C@H](NC1CCN(c2ccc(C(=O)NO)cc2)CC1)C(=O)O [Example 49, N-{1-[4-(hydroxycarbamoyl)phenyl]piperidin-4-yl}-L-leucine] | 
26 | < 5.48 | < 6.00 |  | O=C(NO)c1ccc(N2CCC(CN[C@H](C(=O)OC3CCCC3)C3CCCCC3)CC2)cc1 [Example 50, Cyclopentyl (2S)-cyclohexyl[({1-[4-(hydroxycarbamoyl)phenyl]piperidin-4-yl}methyl)amino]acetate] | < 5.48
27 |  | < 6.00 |  | O=C(NO)c1ccc(N2CCC(CN[C@H](C(=O)O)C3CCCCC3)CC2)cc1 [Example 51, (2S)-cyclohexyl[({1-[4-(hydroxycarbamoyl)phenyl]piperidin-4-yl}methyl)amino]acetic acid] | 
28 | 5.48 to 6.48 | < 6.00 |  | O=C(NO)c1ccc(N2CCC(CNCc3ccc(CN[C@H](C(=O)OC4CCCC4)C4CCCCC4)cc3)CC2)cc1 [Example 52, Cyclopentyl (2S)-cyclohexyl[(4-{[({1-[4-(hydroxycarbamoyl)phenyl]piperidin-4-yl}methyl)amino]methyl}benzyl)amino]acetate] | 5.48 to 6.48
29 | 5.48 to 6.48 | < 6.00 |  | O=C(NO)c1ccc(N2CCC(CNCC3CCC(CN[C@H](C(=O)OC4CCCC4)C4CCCCC4)CC3)CC2)cc1 (stereo partly drawn) [Example 54, cyclopentyl (2S)-cyclohexyl{[(4-{[({1-[4-(hydroxycarbamoyl)phenyl]piperidin-4-yl}methyl)amino]methyl}cyclohexyl)methyl]amino}acetate] | 5.48 to 6.48
30 |  | < 6.00 |  | O=C(NO)c1ccc(N2CCC(CNCC3CCC(CN[C@H](C(=O)O)C4CCCCC4)CC3)CC2)cc1 (stereo partly drawn) [Example 55, (2S)-cyclohexyl{[(4-{[({1-[4-(hydroxycarbamoyl)phenyl]piperidin-4-yl}methyl)amino]methyl}cyclohexyl)methyl]amino}acetic acid] | 
